Measured values from article PMC7026418, “The kinase polypharmacology landscape of clinical PARP inhibitors” (Scientific Reports, 2020).
Where two headings read alike, the source gives them in different places.

Columns and labels:
Test in all cases: biochemical
Set-up in all cases: DiscoveRx KINOMEscan active site-directed competition binding; percent of control kinase bound to immobilised ligand
NDR1 = biological target: T1, NDR1 (Homo sapiens, UniProt Q15208)
T1 construct: gene STK38

EGFR(L858R) = EGFR(L858R) (Homo sapiens, UniProt P00533, L858R)
EGFR(L858R), sequence (P00533 whole entry L858R): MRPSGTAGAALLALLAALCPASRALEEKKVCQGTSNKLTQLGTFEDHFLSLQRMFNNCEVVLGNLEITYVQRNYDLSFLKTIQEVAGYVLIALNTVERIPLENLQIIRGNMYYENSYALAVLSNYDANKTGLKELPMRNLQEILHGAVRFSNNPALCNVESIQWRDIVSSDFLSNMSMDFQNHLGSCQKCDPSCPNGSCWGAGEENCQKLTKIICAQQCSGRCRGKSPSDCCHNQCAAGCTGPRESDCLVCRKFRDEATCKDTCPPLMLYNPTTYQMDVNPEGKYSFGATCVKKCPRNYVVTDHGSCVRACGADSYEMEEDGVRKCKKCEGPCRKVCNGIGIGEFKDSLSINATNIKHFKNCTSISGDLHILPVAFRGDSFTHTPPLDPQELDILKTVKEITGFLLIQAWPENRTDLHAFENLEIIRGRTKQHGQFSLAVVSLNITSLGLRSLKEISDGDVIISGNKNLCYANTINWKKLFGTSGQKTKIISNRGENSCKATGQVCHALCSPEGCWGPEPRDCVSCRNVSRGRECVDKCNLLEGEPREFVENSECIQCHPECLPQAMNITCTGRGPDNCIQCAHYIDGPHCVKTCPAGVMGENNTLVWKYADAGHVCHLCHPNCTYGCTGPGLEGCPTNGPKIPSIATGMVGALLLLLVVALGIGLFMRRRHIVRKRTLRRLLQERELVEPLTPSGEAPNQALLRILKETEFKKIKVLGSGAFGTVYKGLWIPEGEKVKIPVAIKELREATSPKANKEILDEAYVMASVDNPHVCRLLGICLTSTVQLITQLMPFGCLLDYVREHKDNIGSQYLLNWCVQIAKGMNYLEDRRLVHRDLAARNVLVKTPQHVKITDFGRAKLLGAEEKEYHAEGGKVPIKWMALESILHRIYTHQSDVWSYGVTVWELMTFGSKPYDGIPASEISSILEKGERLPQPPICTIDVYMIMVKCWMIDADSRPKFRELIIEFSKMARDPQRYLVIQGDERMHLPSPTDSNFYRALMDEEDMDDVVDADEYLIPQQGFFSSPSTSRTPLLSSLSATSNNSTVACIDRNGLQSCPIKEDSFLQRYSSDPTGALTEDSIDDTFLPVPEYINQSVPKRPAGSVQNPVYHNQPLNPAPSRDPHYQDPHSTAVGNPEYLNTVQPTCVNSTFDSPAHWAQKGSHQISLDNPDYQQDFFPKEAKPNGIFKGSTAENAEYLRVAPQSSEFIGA

HASPIN = biological target: T2, HASPIN (Homo sapiens, UniProt Q8TF76)
T2 sequence (Q8TF76 1-798): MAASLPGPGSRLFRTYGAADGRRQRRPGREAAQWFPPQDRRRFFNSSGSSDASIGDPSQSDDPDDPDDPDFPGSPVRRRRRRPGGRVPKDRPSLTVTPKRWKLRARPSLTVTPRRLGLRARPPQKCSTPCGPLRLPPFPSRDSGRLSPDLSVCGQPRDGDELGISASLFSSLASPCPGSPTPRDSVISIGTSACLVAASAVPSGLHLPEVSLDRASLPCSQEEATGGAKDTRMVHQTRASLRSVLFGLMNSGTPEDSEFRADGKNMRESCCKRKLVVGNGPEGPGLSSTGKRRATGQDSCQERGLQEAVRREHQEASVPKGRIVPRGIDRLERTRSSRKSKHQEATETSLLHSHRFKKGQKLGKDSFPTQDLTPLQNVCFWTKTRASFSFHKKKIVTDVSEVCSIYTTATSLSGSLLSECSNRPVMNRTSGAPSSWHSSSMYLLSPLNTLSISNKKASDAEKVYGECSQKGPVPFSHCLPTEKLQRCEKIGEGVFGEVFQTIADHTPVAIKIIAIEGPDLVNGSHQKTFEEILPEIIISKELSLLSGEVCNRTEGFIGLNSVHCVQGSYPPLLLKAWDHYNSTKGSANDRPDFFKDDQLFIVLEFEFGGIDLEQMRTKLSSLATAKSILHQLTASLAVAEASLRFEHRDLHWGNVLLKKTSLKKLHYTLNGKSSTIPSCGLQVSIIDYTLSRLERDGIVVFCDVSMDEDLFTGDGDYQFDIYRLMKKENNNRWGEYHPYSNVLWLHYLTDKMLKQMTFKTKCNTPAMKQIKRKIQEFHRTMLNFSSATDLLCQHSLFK

CSNK1G1 = CSNK1G1 (Homo sapiens, UniProt Q9HCP0)
CSNK1G1, sequence (Q9HCP0 whole entry): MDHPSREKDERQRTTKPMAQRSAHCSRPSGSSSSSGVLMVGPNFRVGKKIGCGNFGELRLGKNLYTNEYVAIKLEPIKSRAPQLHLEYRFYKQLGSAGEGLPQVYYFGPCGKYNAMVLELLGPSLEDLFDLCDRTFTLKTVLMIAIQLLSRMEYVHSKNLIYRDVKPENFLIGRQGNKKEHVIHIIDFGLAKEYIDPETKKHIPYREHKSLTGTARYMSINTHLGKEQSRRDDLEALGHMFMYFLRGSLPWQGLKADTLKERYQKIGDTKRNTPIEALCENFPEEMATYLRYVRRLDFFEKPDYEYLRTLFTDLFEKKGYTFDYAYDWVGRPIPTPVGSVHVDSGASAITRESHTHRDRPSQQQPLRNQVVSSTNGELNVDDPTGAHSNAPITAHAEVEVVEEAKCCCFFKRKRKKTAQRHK

SLK = SLK (Homo sapiens, UniProt Q9H2G2)
EGFR(S752-I759del) = EGFR(S752-I759del) (Homo sapiens, UniProt P00533, DEL752-759)
EGFR(S752-I759del), sequence (P00533 with tags, fused parts or gaps DEL752-759): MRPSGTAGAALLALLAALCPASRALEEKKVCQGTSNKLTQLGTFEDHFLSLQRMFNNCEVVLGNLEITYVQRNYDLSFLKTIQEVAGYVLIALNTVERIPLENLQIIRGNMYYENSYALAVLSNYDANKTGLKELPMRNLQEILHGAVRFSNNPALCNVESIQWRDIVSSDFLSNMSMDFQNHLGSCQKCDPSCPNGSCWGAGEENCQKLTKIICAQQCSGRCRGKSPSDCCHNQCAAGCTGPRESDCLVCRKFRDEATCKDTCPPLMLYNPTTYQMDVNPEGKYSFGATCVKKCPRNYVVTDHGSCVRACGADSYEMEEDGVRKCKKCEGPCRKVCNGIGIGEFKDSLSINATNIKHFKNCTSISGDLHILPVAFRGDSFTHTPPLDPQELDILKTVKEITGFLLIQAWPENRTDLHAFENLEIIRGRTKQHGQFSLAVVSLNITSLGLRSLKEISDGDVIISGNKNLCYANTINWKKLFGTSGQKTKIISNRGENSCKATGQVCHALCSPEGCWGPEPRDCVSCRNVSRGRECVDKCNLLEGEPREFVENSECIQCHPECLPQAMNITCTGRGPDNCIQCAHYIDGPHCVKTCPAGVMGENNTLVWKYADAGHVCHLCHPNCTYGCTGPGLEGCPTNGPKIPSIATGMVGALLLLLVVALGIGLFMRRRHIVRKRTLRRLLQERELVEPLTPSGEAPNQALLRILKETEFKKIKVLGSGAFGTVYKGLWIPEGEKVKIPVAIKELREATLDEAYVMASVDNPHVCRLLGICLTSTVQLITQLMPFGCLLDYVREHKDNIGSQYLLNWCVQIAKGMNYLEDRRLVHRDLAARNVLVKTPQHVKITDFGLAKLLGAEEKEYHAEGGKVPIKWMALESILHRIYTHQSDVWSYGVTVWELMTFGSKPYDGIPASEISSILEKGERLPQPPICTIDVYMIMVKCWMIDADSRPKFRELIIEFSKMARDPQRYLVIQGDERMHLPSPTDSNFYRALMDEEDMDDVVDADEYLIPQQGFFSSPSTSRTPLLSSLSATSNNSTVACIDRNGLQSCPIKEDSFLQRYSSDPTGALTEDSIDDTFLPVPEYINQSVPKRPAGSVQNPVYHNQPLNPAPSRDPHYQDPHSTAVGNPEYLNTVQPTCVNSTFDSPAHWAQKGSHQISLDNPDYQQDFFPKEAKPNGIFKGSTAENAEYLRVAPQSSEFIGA

GCN2(Kin.Dom.2,S808G) = biological target: T3, GCN2(Kin.Dom.2,S808G) (Homo sapiens, UniProt Q9P2K8, S808G)
T3 construct: gene EIF2AK4; Kin.Dom.2
T3 sequence (Q9P2K8 whole entry S808G): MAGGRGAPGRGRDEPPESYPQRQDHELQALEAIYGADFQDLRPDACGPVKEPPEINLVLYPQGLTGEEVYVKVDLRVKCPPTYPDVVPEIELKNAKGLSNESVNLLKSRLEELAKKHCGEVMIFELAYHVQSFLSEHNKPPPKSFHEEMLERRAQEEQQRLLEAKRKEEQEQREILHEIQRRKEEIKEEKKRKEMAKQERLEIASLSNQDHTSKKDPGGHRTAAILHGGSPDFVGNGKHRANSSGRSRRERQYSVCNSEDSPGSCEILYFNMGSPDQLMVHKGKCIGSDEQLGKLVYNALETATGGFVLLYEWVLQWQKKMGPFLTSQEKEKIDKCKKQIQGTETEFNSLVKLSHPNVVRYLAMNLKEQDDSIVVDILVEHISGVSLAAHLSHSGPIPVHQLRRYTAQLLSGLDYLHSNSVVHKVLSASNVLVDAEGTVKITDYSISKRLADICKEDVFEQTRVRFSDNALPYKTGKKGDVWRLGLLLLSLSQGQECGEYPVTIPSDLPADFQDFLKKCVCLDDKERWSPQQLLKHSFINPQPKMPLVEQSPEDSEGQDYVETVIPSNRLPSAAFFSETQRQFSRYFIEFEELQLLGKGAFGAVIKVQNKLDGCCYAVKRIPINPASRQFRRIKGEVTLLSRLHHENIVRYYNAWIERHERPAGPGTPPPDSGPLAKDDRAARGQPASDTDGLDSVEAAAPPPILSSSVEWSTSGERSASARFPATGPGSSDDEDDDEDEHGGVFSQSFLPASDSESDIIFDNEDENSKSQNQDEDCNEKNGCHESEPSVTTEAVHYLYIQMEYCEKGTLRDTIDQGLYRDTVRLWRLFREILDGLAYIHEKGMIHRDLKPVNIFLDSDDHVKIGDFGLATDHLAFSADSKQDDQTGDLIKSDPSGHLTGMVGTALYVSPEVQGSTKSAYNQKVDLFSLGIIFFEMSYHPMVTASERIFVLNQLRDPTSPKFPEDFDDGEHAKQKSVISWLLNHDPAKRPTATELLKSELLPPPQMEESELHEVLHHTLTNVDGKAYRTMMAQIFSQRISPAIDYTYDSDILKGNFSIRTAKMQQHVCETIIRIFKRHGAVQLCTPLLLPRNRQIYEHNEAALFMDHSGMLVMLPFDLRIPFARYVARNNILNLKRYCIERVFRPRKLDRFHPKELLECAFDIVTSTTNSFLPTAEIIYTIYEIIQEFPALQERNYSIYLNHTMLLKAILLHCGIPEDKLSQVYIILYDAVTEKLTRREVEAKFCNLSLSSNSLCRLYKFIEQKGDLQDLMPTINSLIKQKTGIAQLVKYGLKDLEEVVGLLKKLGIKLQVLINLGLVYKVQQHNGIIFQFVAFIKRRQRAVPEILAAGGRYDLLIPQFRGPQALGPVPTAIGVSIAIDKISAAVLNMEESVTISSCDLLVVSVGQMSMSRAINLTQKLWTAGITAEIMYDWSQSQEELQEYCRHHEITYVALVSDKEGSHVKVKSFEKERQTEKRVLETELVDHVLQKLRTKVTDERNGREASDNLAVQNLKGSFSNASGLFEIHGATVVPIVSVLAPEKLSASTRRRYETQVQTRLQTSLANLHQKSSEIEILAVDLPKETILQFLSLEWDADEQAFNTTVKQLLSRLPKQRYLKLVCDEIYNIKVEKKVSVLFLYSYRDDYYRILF

GRK2 = biological target: T4, GRK2 (Homo sapiens, UniProt P25098)
T4 sequence (P25098 1-689): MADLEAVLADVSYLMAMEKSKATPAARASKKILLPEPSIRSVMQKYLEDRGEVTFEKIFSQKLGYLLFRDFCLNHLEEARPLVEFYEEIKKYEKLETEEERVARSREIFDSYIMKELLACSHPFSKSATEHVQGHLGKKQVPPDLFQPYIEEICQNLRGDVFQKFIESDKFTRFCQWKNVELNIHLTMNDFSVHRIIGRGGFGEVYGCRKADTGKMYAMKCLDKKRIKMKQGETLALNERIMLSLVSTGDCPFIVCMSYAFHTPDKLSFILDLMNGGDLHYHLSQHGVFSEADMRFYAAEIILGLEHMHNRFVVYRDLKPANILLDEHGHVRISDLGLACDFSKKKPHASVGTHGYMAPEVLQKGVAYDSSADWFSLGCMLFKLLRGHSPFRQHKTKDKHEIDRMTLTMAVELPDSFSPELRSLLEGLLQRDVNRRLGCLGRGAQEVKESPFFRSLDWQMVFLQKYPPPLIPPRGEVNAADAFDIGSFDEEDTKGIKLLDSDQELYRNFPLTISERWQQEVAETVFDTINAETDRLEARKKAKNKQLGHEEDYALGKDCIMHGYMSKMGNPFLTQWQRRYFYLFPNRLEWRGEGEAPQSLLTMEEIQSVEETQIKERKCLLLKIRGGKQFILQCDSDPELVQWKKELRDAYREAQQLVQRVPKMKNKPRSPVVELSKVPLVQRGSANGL

[1] = read-out: Talazoparib (BMN 673) / %Ctrl @ 10000nM
[2] = read-out: Olaparib / %Ctrl @ 10000nM
[3] = read-out: Rucaparib / %Ctrl @ 10000nM, binding competition, % of control
[4] = read-out: Niraparib (MK-4827) / %Ctrl @ 10000nM

T1 sequence (Q15208 whole entry): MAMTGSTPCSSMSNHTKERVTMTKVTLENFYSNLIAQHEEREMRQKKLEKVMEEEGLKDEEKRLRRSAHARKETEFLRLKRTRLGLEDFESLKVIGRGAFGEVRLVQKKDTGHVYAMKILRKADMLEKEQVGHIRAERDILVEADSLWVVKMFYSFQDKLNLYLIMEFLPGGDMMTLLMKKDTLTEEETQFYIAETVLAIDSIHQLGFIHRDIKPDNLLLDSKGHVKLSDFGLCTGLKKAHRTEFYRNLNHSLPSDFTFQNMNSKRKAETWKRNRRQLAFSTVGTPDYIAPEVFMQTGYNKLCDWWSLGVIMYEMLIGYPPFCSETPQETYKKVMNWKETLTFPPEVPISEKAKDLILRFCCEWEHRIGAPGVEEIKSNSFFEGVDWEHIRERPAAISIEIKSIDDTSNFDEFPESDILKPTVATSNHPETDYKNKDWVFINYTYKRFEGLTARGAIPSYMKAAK

`Cn1ncnc1[C@H]1c2n[nH]c(=O)c3cc(F)cc(c23)N[C@@H]1c1ccc(F)cc1` [Talazoparib] was tested, and the percent of control binding at 10 µM (NDR1; [1]) was 72%, the percent of control binding at 10 µM (EGFR(L858R); [1]) was 97% and the percent of control binding at 10 µM (HASPIN; [1]) was 100%. It also gave a percent of control binding at 10 µM (CSNK1G1; [1]) of 99%, a percent of control binding at 10 µM (SLK; [1]) of 90% and a percent of control binding at 10 µM (EGFR(S752-I759del); [1]) of 100%. The percent of control binding at 10 µM (GCN2(Kin.Dom.2,S808G); [1]) was 100% and the percent of control binding at 10 µM (GRK2; [1]) was 100%.

Compound `O=C(c1cc(Cc2n[nH]c(=O)c3ccccc23)ccc1F)N1CCN(C(=O)C2CC2)CC1` [Olaparib] has a percent of control binding at 10 µM (NDR1; [2]) of 100%, a percent of control binding at 10 µM (EGFR(L858R); [2]) of 92% and a percent of control binding at 10 µM (HASPIN; [2]) of 72%. It also gave a percent of control binding at 10 µM (CSNK1G1; [2]) of 97%, a percent of control binding at 10 µM (SLK; [2]) of 100% and a percent of control binding at 10 µM (EGFR(S752-I759del); [2]) of 84%. It also gave a percent of control binding at 10 µM (GCN2(Kin.Dom.2,S808G); [2]) of 93% and a percent of control binding at 10 µM (GRK2; [2]) of 79%.

For `CNCc1ccc(-c2[nH]c3cc(F)cc4c3c2CCNC4=O)cc1` [Rucaparib], the percent of control binding at 10 µM (NDR1; [3]) was 69%, the percent of control binding at 10 µM (EGFR(L858R); [3]) was 96% and the percent of control binding at 10 µM (HASPIN; [3]) was 9%. The percent of control binding at 10 µM (CSNK1G1; [3]) was 93%, the percent of control binding at 10 µM (SLK; [3]) was 98% and the percent of control binding at 10 µM (EGFR(S752-I759del); [3]) was 89%. It also gave a percent of control binding at 10 µM (GCN2(Kin.Dom.2,S808G); [3]) of 55% and a percent of control binding at 10 µM (GRK2; [3]) of 70%.

`NC(=O)c1cccc2cn(-c3ccc([C@@H]4CCCNC4)cc3)nc12` [Niraparib] was tested, and the percent of control binding at 10 µM (NDR1; [4]) was 100%, the percent of control binding at 10 µM (EGFR(L858R); [4]) was 70% and the percent of control binding at 10 µM (HASPIN; [4]) was 2.2%. The percent of control binding at 10 µM (CSNK1G1; [4]) was 98%, the percent of control binding at 10 µM (SLK; [4]) was 92% and the percent of control binding at 10 µM (EGFR(S752-I759del); [4]) was 71%. It also gave a percent of control binding at 10 µM (GCN2(Kin.Dom.2,S808G); [4]) of 83% and a percent of control binding at 10 µM (GRK2; [4]) of 97%.
